Test results from article PMC10038264, “A new family of glutamate-gated chloride channels in parasitic sea louse Caligus rogercresseyi: A subunit refractory to activation by ivermectin is dominant in heteromeric assemblies” (PLOS Pathogens, 2023).
Where two headings read alike, the source gives them in different places.

What was measured:
[1] = test system: coexpressed CrGluCl-A:CrGluCl-B; assay: Voltage-clamp of oocytes coexpressing CrGluCl-A and CrGluCl-B; format: cell-based, Caligus rogercresseyi
Method: (§1) Adult female Xenopus laevis frogs were anaesthetized by immersion in a1g/L solution tricaine (Ethyl 3-aminobenzoate methanesulfonate, Sigma) buffered to pH 7 with NaHCO3. Surgery was performed 30–40 min later, once the frog was completely anaesthetized judging by loss of reflexes. Ovarian lobes were removed through 1 cm abdominal incision and then kept at 16°C in Barth’s modified solution containing (in mM): 88 NaCl, 1 KCl, 0.4 CaCl2, 0.3 Ca (NO3)2, 0.8 MgSO4, 2.4 NaHCO3, 5 Hepes, 2.5 sodium pyruvate, 100 μg/ml gentamicin sulfate, 100 U/ml penicillin, 100 μg/ml streptomycin, 250 μg/ml amphotericin B, 0.22μm filtered and adjusted to pH 7.5 with Tris-Base. Osmolarity was brought to 220 mOsm with saccharose. The oocytes were manually defolliculated on the same day of extraction and the following day 20 ng cRNA in nuclease-free water was injected into stage V-VI oocytes using a FemtoJet microinjector (Eppendorf). Finally, the injected oocytes were stored in 96 well plates containing Barth’s modified solution and kept at 16°C until experiment day.
(§2) Current measurements at controlled membrane potentials (voltage-clamp experiments) were performed using two intracellular microelectrodes in defolliculated Xenopus oocytes previously microinjected with 20 ng of cRNA. Voltage-clamp recording was performed at room temperature using a TURBO TEC-10CX amplifier (npi electronic GmbH, Tamm, Germany) and PClamp 10.6 software (Axon Instruments, USA), 1 to 4 days after oocyte injection. The oocytes were recorded in a chamber (Model RC-1Z, Warner Instrumenst, USA) under continuous superfusion. […] Reference was an Ag-AgCl electrode connected to the bath via a 3 M KCl in 3% agar bridge. Currents were recorded continuously during the experiments without interruptions for solution changes. Oocytes were held at -30 mV and a voltage protocol consisting of a voltage drop to -100 mV for 25ms followed by a 360 ms ramp from -100 mV to 60mV applied with a period of 565 ms was continuously given. The signal filtered at 1 kHz was acquired with a Digidata 1440A Analog-to-Digital Converter and analyzed with Axon pClamp 10.6 software. The solution that bathed the oocytes during the electrophysiological recordings had the following composition (mM): 115 NaCl, 2 KCl, 1.8 CaCl2, 1 MgCl2, 10 HEPES pH 7.5 obtained with NaOH. For the low chloride solution, all the NaCl was replaced with the gluconate salt of Na. This decreases chloride concentration from 122.6 to 7.6 mM while increasing that of gluconate from 0 to 115 mM. The stock solutions of the drugs in dimethyl sulfoxide (DMSO) were: 10 mM emamectin, 10 mM ivermectin, 100 mM picrotoxin. These were diluted in bath solution to obtain final concentrations.
(§3) The currents were normalized according to the extrapolated maximum current delivered by the Hill adjustment. In this way, the concentration that generates 50% of the maximum effect (EC50) and the Hill coefficient (nH) for each situation were obtained.

CeGluClβ (CeGLC-2) = conditions: cited from earlier work
[2] = test system: coexpressed CrGluCl-E:CrGluCl-C; assay: Voltage-clamp of oocytes coexpressing CrGluCl-E and CrGluCl-C; format: cell-based, Caligus rogercresseyi; conditions: C:E ratio 1:1
Method: as §1
Current measurements at controlled membrane potentials (voltage-clamp experiments) were performed using two intracellular microelectrodes in defolliculated Xenopus oocytes previously microinjected with 20 ng of cRNA. Voltage-clamp recording was performed at room temperature using a TURBO TEC-10CX amplifier (npi electronic GmbH, Tamm, Germany) and PClamp 10.6 software (Axon Instruments, USA), 1 to 4 days after oocyte injection. The oocytes were recorded in a chamber (Model RC-1Z, Warner Instrumenst, USA) under continuous superfusion. […] Reference was an Ag-AgCl electrode connected to the bath via a 3 M KCl in 3% agar bridge. Currents were recorded continuously during the experiments without interruptions for solution changes. […] The signal filtered at 1 kHz was acquired with a Digidata 1440A Analog-to-Digital Converter and analyzed with Axon pClamp 10.6 software. […]

CrGluCl-D = format: cell-based, Caligus rogercresseyi; conditions: CrGluCl-D spontaneous current
Method: as §1, §2, §3

CrGluCl-C = format: cell-based, Caligus rogercresseyi; conditions: for maximal current: CrGluCl-C, saturating concentration of agonist; for nH (ivermectin) / EC50: CrGluCl-C alone; for EC50: irreversible activation
Method: as §1, §2, §3

CrGluCl-A = CrGluCl-A (Caligus rogercresseyi, UniProt A0A1W6LZ70); conditions: cited from earlier work
Chain of CrGluCl-A (A0A1W6LZ70 entry or part of it): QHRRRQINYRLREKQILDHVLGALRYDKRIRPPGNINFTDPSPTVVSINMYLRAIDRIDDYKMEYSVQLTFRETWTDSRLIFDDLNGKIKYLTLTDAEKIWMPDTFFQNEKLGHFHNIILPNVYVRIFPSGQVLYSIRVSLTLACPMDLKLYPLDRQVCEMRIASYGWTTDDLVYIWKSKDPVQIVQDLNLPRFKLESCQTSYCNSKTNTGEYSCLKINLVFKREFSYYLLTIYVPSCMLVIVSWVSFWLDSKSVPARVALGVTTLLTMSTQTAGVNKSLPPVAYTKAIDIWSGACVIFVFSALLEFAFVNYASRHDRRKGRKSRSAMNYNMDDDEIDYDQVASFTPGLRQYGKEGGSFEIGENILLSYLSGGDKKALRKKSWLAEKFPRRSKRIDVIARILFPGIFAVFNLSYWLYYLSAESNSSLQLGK

## N[C@@H](CCC(=O)O)C(=O)O [glutamate, L-glutamate]
[1]; A:B ratio 1:1
  EC50: 82 ± 35 µM
[1]; A:B ratio 1:4
  EC50: 72 ± 47 µM
[1]; A:B ratio 4:1
  EC50: 89 ± 47 µM
CeGluClβ (CeGLC-2); read-out: EC50 glutamate, CeGluClβ
  EC50: 380 µM
[2]
  EC50: 36.5 ± 22.5 µM
CrGluCl-D
  direct activating effect: lack a direct activating effect
CrGluCl-C
  maximal current: 3.5 ± 1.7 μA
CrGluCl-A
  nH (glutamate), previously published: 1.33
CrGluCl-A; read-out: EC50 Glutamate, previously published
  EC50: 6.9 µM

## ivermectin
[1]; A:B ratio 1:1
  Iver response to activation: Insensitive
[1]; A:B ratio 1:4
  Iver response to activation: Insensitive
[1]; A:B ratio 4:1
  Iver response to activation: Insensitive
CeGluClβ (CeGLC-2); CeGLC-2
  nH (ivermectin inhibition): -1.74
CeGluClβ (CeGLC-2); read-out: IC50 ivermectin inhibition of glutamate activated current, CeGLC-2
  IC50: 1.28 µM
[2]
  nH (ivermectin): 2.1 ± 0.67
[2]; listed as Iver
  nH (ivermectin): 2.1 ± 0.7
CrGluCl-D
  direct activating effect: lack a direct activating effect
CrGluCl-C
  nH (ivermectin): 2.1
  maximal current: 3.7 ± 1.3 μA
CrGluCl-C; listed as Ivermectin
  EC50: 0.031 ± 0.014 µM
  nH (ivermectin): 2.1 ± 0.67
CrGluCl-C; read-out: EC50 Ivermectin
  EC50: 0.0311 ± 0.0144 µM
CrGluCl-A
  nH (ivermectin): 2.1
CrGluCl-A; listed as Ivermectin, read-out: EC50 Ivermectin / avermectin irreversible activation
  EC50: 0.181 µM
CrGluCl-A; read-out: EC50 Ivermectin / avermectin irreversible activation
  EC50: ~0.2 µM
